Source: patent US12215389B2, “Compositions for detecting epigenetic modifications” (EXACT SCIENCES CORPORATION, priority 2007, dated 2025)

Key:
[1] = tested on: methylated gene promoters in plasma DNA; experiment: Real-time MSP on plasma DNA; set-up: species or system human; conditions: for % Specificity (all 59 controls), plasma set 1: plasma training set 1
Experimental: 10 ml of blood was obtained per individual using EDTA Vacutainer™ tubes. Individuals with no suspicious findings, adenomas or carcinomas based on colonoscopy were enrolled in the present study. Within 4 hrs from the blood drawing, the plasma fraction was separated from the cell fraction by centrifugation at 1500 g for 15 min (4° C.). The plasma was transferred to new tubes and once again centrifuged (1500 g, 15 min, 4° C.), after which the supernatant was transferred to new tubes and stored at −80° C. until further use. Samples were shipped on dry ice.
DNA isolation from plasma samples (1.2 to 6 ml) was performed using an upscaled phenol-chloroform DNA isolation method using the 15 ml of Heavy Phase lock Gel tubes (PLG tubes) (Eppendorf, cat #0032 005.152) or alternatively the ChargeSwitch® gDNA 1 ml serum kit from Invitrogen (cat #CS11040).
Plasma samples were thawed and 1/10 volume of 10× buffer (240 mM EDTA (pH=8.0), 750 mM NaCl), 1/10 volume of 10% SDS and 5 μl of Proteinase K (20 mg/ml stock solution) per 1 ml of sample (e.g. 15 μl for 3 ml of sample) was added to each plasma sample. This mixture was incubated overnight at 48° C. at constant shaking (200 RPM).
Subsequently the PLG tube was centrifuged at 2500 RCF for 3 min, sample mixture and approximately the same volume of phenol/chloroform (Invitrogen, cat #15593049) were added to it. This solution was briefly vortexed, mixed for 10 min using a tube rocker at room temperature and centrifuged for 5 min at 2500 RCF. In case the retrieved sample volume was ≤4 ml, an equal volume of phenol/chloroform was added. The upper aqueous layer was phenol/chloroform-treated for a second time.
DNA was precipated from the upper aqueous layer by adding 5 μl glycogen, 1/10 volume of 7.5 M Ammonium Acetate and 2-2.5 volumes of cold (−20° C.) 100% ethanol. Tubes were gently inverted and incubated at −20° C. for at least 1 h, followed by a centrifugation step at 17000 RCF for 30 min (4° C.). Ethanol was carefully removed by pipetting. Pellets were washed with 2 ml freshly prepared 70% ethanol, vortexed gently and submitted to a centrifugation step at 17000 RCF for 15 min at 4° C. After careful removal of the remaining ethanol, pellets were air dried and resuspended in 45 μl of LoTE pH 8.0. The isolated DNA is stored at −80° C. until further processing.
The complete content of DNA isolated in above procedure was subjected to sodium bisulfite treatment (BT) using the EZ-96 DNA Methylation kit from Zymo Research (Cat #D5003) performed on a pipetting robot (Tecan Freedom EVOII, Roma, Liha, Mca, Te-Vacs). Briefly, 45 μl of plasma DNA sample was mixed with 5 μl of M-Dilution Buffer (provided in kit) and incubated at 37° C. for 15 min shaking at 1100 RPM. This mixture was further incubated with 100 μl of diluted CT conversion reagent (provided in kit) shaking at 70° C. for 3 hours (protected from light). Subsequently the modified DNA was desalted and desulfonated according to manufacturer's instructions and eluted in either 40 μl or 20 μl of Tris-HCl 1 mM pH8.0, depending on the applied concentration procedure. The eluted material was stored at −80° C. until further processing.
2.4 μl of the modified DNA was added to a PCR mix (total volume 12 μl) containing home-made buffer solution (final concentrations are summarized: 16.6 mM (NH4)2SO4, 67 mM Tris (pH 8.8), 6.7 mM MgCl2, 10 mM β-mercaptoethanol), dNTPs (5 mM; Amersham Biosciences cat #27-2035-02), methylation specific forward primer (6 ng), methylation specific reverse primer (18 ng), molecular beacon (0.16 μM) and Jumpstart DNA Taq polymerase (0.4 units; Sigma Cat #D9307).
A standard curve was included (9.6×10^5—9.6 copies) to determine copy numbers of unknown samples by interpolation of their Ct values to the standard curve.
DNA was isolated following the upscaled phenol-chloroform procedure; subsequently the whole DNA sample was modified as described above.

tumor endothelial cells = conditions: DAC and TSA together, Hellebrekers, Melotte et al. 2007; cited from earlier work
[2] = tested on: NDRG4 expression in RKO and HCT116 cell lines; experiment: NDRG4 re-expression by real-time RT-PCR after treatment with DAC and TSA; type: cell-based, human; conditions: combined treatment, 1 μM DAC and 300 nM TSA, cyclophilin reference gene
Experimental: Colon cancer cell lines LS174T, HCT116, HT29, RKO, CaCo2, Colo205, SW48 and SW480 were used for MSP, bisulfite sequencing and real time (reexpression) RT-PCR ([…] and 300 nM TSA).
Total RNA isolation was isolated by use of the Rneasy Mini kit (Qiagen) cDNA synthesis using the Iscript cDNA synthesis kit (Bio-Rad). Quantitative real-time reverse transcription-PCR was done using SYBR Green PCR Master Mix (Applied Biosystems, Nieuwekerk a/d IJssel, the Netherlands). Primers and PCR conditions are specified in Table 21.
Expression of the NDRG4 gene was determined by real-time reverse-transcription PCR (RT-PCR). […] Relative expression of NDRG4 after treatment with DAC and TSA was compared to untreated cell lines. Cyclophilin was used as a reference gene for expression normalisation.

[3] = tested on: methylated gene promoters in FFPE tissue DNA; experiment: Real-time MSP on colon tissue samples; set-up: species or system human
Experimental: Real-time MSP was applied on a 7900HT fast real-time PCR system (Applied Biosystems). 2.4 μl of the modified DNA (equivalent to 2.5 μg unconverted DNA) was added to a PCR mix (total volume 12 μl) containing buffer (16.6 mM (NH4)2SO4, 67 mM Tris (pH 8.8), 6.7 mM MgCl2, 10 mM β-mercaptoethanol), dNTPs (5 mM), forward primer (6 ng), reverse primer (18 ng), molecular beacon (0.16 μM), BSA (0.1 μg), and Jumpstart DNA Taq polymerase (0.4 units; Sigma Aldrich). Cycle program used was as follows: 5 minutes 95° C., followed by 45 cycles of 30 seconds 95° C., 30 seconds 57° C. (51° C. for APC), and 30 seconds 72° C., followed by 5 minutes 72° C. A standard curve (2×106—20 copies) was included to determine copy numbers of unknown samples by interpolation of their Ct values to the standard curve.
Marker selection in colon tissue: Based on re-expression, 224 different gene assays representing 145 gene promotors were tested on the Base5 methylation profiling platform (data not shown, see reference 1 for details). The 37 most differentially methylated gene sequences assessing 29 gene promoters were validated on retrospectively collected tumors from 65 colorectal cancer patients (all stages) and 74 distant resection ends (histopathologically normal) using real-time MSP. Several markers reliably detected CRC in those tissue samples (data not shown). The results were confirmed on an independent test set containing 39 tissue controls (non-cancerous), 34 carcinomas and 16 adenomas. Several combinations of the tested markers reliably detected CRC with high specificity and sensitivity.
The ten best performing markers GATA5, GATA4, SFRP1, SFRP2, APC, MGMT, NDRG4, OSMR, JPH3 and ADAM23 were validated with primer sets and beacon probes as specified in Table 24. In addition to the colon test genes, the independent reference gene β-Actin (ACT) was also measured. The ratios between the colon test genes and ACT were calculated, and are the test result of the assay.
Marker candidates identified by re-expression were screened using 37 real-time methylation specific PCR (real-time MSP) assays. These assays were used to assess the methylation status of 29 gene promoters in 293 formalin-fixed paraffin-embedded (FFPE) tissue samples collected from various clinics. Samples included 99 carcinomas of various stages, 16 adenomas, 63 samples from patients with cancer other than CRC (20 breast [stages I-III], 22 bladder [stages I-III], 21 lung [stages I and II]), 39 samples from patients with no evidence of cancer and 76 distant resection ends (histopathologically normal) from CRC patients. These samples were divided into training and independent test sets, and used to select the gene methylation assays best able to discriminate between cancerous and non-cancerous samples. The training set included retrospectively collected tumors from 65 colorectal cancer patients (all stages) and 74 distant resection ends. Using the 10 best performing genes the results were confirmed on an independent test set containing 59 samples from patients with cancer other than CRC, 39 non-cancerous controls and 50 cancer cases (34 carcinomas and 16 adenomas).
The individual performance of the 10 best performing tissue markers OSMR, SFRP1, GATA4, SFRP2, NDRG4, ADAM23, GATA5, MGMT, APC and JPH3 is shown in FIG. 7, when the analytical cut-off was set to give 100% specificity, except for JPH3 where a specificity of 95% was obtained (based on the 39 non-cancerous controls). In addition to the colon test genes, the independent reference gene β-Actin (ACT) was also measured. The ratios between the colon test genes and ACT were calculated, and are the test result of the assay.

[4] = tested on: NDRG1 expression in cancer cells; conditions: Guan et al. 2000, Bandyopadhyay et al. 2004; cited from earlier work
[5] = tested on: NDRG4 mRNA in CRC cell lines HCT116 and RKO; experiment: NDRG4 reexpression following inhibition of DNA methyltransferases (quantitative RT-PCR); type: cell-based, human; conditions: 1 μM DAC
Experimental: CRC cell lines HT29, SW480, Caco2, Colo205, RKO, LS174T, HCT116 and SW480 were cultured in DMEM (Invitrogen) supplemented with 10% heat-inactivated fetal calf serum (Hyclone). To investigate reexpression of NDRG4 following inhibition of DNA methyltransferases, HCT116 and RKO were treated with 1 μM DAC (Sigma).
Total RNA from cell lines, normal mucosa and tumor tissue was isolated using the Rneasy Mini kit (Qiagen) following the manufacturers instructions. Possible genomic DNA contaminations were removed by DNAse treatment with the RNase-free DNAse set (Qiagen). cDNA synthesis using the Iscript cDNA synthesis kit (Bio-Rad) was performed. Quantitative real-time (RT-PCR) was performed using SYBR Green PCR master mix (Applied Biosystems, Nieuwekerk a/d IJssel, The Netherlands). Realtime RT-PCR mixes were composed of 1× iQ SYBR Green Supermix (Bio-Rad), 400 nM of the forward (SEQ ID NO: 3 5′-[…]-3′) and reverse (SEQ ID NO: 4 5′-[…]-3′) primer and cDNA corresponding to 30 ng total RNA per reaction. As standard control, primers targeted against cyclophilin A were used. Reactions were run using the iCycler (Bio-Rad) for 40 cycles at a Tm of 60° C. The comparative Ct method was used to calculate differences in mRNA expression. […] Next, the fold difference in expression was calculated as 2-^[delta][delta]Ct, with [delta][delta]Ct=[delta]Ct,sample1-[delta]Ct,control. […]

[6] = 16 adenoma tissue samples vs 39 controls
[7] = 34 carcinoma tissue samples vs 39 controls

OSMR (DNA TTTGGTCGGGGTAGGAGTAGC; listed as DNA, chemistry not given here)
% Specificity (all 59 controls), plasma set 1 [1]: 100% | % Sensitivity adenomas plasma set 2: increased plasma equivalent of DNA per real-time MSP assay ([1]; plasma training set 2): 2% | % Specificity (all 89 controls), plasma set 2: increased plasma equivalent of DNA per real-time MSP assay ([1]; plasma training set 2): 99%

CC(/C=C/C(=O)NO)=C\[C@@H](C)C(=O)c1ccc(N(C)C)cc1 [TSA, trichostatin A]
81 genes downregulated in tumor endothelial cells after DAC and TSA treatment (tumor endothelial cells): reexpressed | Relative expression of NDRG4 after treatment with DAC and TSA compared to untreated cell lines [2]: reactivation of NDRG4 expression

SFRP2 (DNA GGGTCGGAGTTTTTCGGAGTTGCGC; listed as DNA, chemistry not given here)
% Specificity (all 59 controls), plasma set 1 [1]: 97% | Sensitivity [3, 6]: 81% | Specificity [3, 6]: 100% | Sensitivity [3, 7]: 68% | Specificity [3, 7]: 100% | Specificity (%) ([3]; 50 cases (adenoma + carcinoma) vs 39 controls, tissue): 100% | Sensitivity (%) ([3]; 50 cases (adenoma + carcinoma) vs 39 controls, tissue, first cut off ratio): 72% | Sensitivity (%) ([3]; 50 cases (adenoma + carcinoma) vs 39 controls, tissue, second cut off ratio, between ( )): (84) %

Nc1ncn([C@H]2C[C@H](O)[C@@H](CO)O2)c(=O)n1 [DAC, 5-aza-2′-deoxycytidine]
81 genes downregulated in tumor endothelial cells after DAC and TSA treatment (tumor endothelial cells): reexpressed | Expression of NDRG1 after DAC treatment [4]: upregulated | Endogenous NDRG4 mRNA levels after treatment with DAC [5]: significant increased | Relative expression of NDRG4 after treatment with DAC and TSA compared to untreated cell lines [2]: reactivation of NDRG4 expression
